From patent US6255250A, “Plant growth regulators in pyrrolidone solvents” (BASF Corporation, priority 1997, dated 2001)
Values belong to the compound of their own block, whether it stands above or below them.

Legend:
Cotton = format: in vivo; settings: mc column, mepiquat chloride 12 g/ha
Description: This resulting composition was mixed with PIX® mepiquat chloride plant growth regulator (BASF Corporation) such that the mepiquat chloride was applied to cotton in field studies at a rate of 12 g/ha and the {[(isopropylidene)-amino]oxy}-acetic acid-2-(methoxy)-2-oxoethyl ester contained in the solvent with an emulsifier system was applied at 1 and 10 g/ha.

peach = settings: low rate (0.08 mM); cited from earlier work
horticultural plants = settings: several horticultural plants; cited from earlier work
physchem = settings: water
Protocol: Formulations of the present invention were prepared as described in Example 1 and were tested for hydrolysis half-life.

cotton plants = settings: approximately 62.5 to 500 g ai/ha assuming spray volume 500 l/ha; cited from earlier work

SMILES: C[N+]1(C)CCCCC1 [mepiquat chloride]
Frequency of Positive Yield (Cotton): 38% | Relative Yield (% compared to untreated) (Cotton): 102%

SMILES: O=P(O)(O)CCCl [ethephon]
effect on bloom and side effects in peach (peach): significantly delayed bloom in peach and reduced side effects | effect on yields and hardiness (horticultural plants): increased the yields and hardiness of several horticultural plants

half-life (physchem): 12 to 21 days
SMILES: COC(=O)COC(=O)CON=C(C)C [{[(isopropylidene)-amino]oxy}-acetic acid-2-(methoxy)-2-oxoethyl ester]

SMILES: NCCOC=CC(N)C(=O)O (stereo not drawn) [aminoethoxyvinylglycine]
improvement in a plant growth factor with increasing rate (cotton plants): As the rate of AVG treatment increased, so did the improvement
